The source of these data is PMC7369893, “Antimicrobial Peptides Display Strong Synergy with Vancomycin Against Vancomycin-Resistant E. faecium, S. aureus, and Wild-Type E. coli” (International Journal of Molecular Sciences, 2020).

For data set [1], the system named is E. coli ATCC 25922. Kind of data set: microbe, parasite or virus in culture. Format: cell-based, Escherichia coli. The note with it: ATCC 25922, 16 h. The protocol: (§1) The antibacterial activities of peptides were determined by the standard broth microdilution method according to the guidelines of the Clinical and Laboratory Standards Institute (CLSI). Briefly, E. coli ATCC 25922 were incubated in MHB, and E. faecium BCRC 15B0132, VISA and VRSA strains were incubated in TSB overnight at 37 °C. The cell cultures were regrown to the mid-log phase and subsequently diluted to a final concentration of 5 × 10^5 CFU/mL. The 1 µL peptides or antibiotic were loaded into each well at the final concentration of 64, 32, 16, 8, 4, 2, 1, and 0.5 µg/mL, then loaded 99 µL diluted microbes into each well of polypropylene 96-well plate. After 16 h of incubation at 37 °C, the turbidity at OD600 was measured by the microplate reader. The minimal inhibitory concentration (MIC) value was defined as the lowest concentration of peptide or antibiotic, which inhibited the 90% visible growth of bacteria. All experiments were repeated three times independently.

Data set [2] deals with VRE, VISA, VRSA and E. coli strains. Nature of the data set: Checkerboard assay, summary statements of the text over the strain panel. The format is cell-based. As to conditions: peptide at ¼ ×MIC combined with vancomycin, all strains studied. The protocol: The synergistic effects of peptides in combination with vancomycin were investigated by checkerboard assay with slight modification. The peptides were fixed concentration at ¼ × MIC, then in combination with antibiotics at various concentrations in each well of 96-well plate. Then the peptide/antibiotic were mixed with inoculum (5 × 10^5 CFU/mL) and incubated at 37 °C for 16 h. The fractional inhibitory concentration (FIC) index was calculated as follows: FIC index = (MIC of drug A in combination/MIC of drug A alone) + (MIC of drug B in combination/MIC of drug B alone). An FIC index of ≤ 0.5 was defined as synergy, indifference was defined as an FIC index of 0.5 < FICI ≤ 4, antagonism was defined as an FIC index of > 4. The experiments were performed in triplicate.

Data set [3] concerns E. faecium BCRC 15B0132. Kind of data set: Uptake of BODIPY-labeled vancomycin, confocal laser scanning microscopy. Format: cell-based, Enterococcus faecium. As to conditions: VRE 10^7 CFU/mL, 0.5 ×MIC peptide 30 min at 37 °C, then BODIPY-labeled vancomycin (2 μg/mL) 30 min; mean fluorescence intensity. The protocol: (§2) The fluorescence experiments were performed with slight modification as described previously. Briefly, the bacteria (10^7 CFU/mL) were incubated with 0.5 ×MIC antimicrobial peptides for 30 min and then treated with BODIPY-labeled vancomycin (2 μg/mL) for 30 min. Samples treated with BODIPY-labeled vancomycin only served as a control. After incubation, bacteria were centrifuged at 8000× g for 5 min, washed three times with PBS to remove unbinding fluorescence dye, and resuspended by PBS. The resuspended solution were loaded on the glass slides (Polysine™, Thermo Fisher Scientific, Waltham, MA, USA) and visualized under confocal laser scanning microscope (LSM 510 META, Carl Zeiss, Jena, Thüringen, Germany) equipped with a 64× oil objective lens (Carl Zeiss, Jena, Thüringen, Germany).

For data set [4] the following is noted: POPC:POPG (3:1, mol/mol) and POPC:LPS (4:1, mol/mol) LUVs; cited from earlier work. The text has this:
Dathe and coauthors used POPC:LPS as model prokaryotic membranes to study peptide activity against E. coli and the role of LPS [20]. Previously, we have evaluated the membrane-permeability of P-113 and its derivatives by measuring the release of calcein from various phospholipid vesicles such as POPC:POPG (3:1, mol/mol) LUVs (mimic the anionic bacterial membrane) and POPC:LPS (4:1, mol/mol) LUVs (served as surrogates of Gram-negative bacterial membranes that contain LPS). […] Nal- ...

Data set [5] deals with Vancomycin-intermediate S. aureus 01 (VISA01). Kind of data set: microbe, parasite or virus in culture. The format is cell-based, Staphylococcus aureus. The note with it: Vancomycin-intermediate 01 (VISA01, 16 h). The protocol: as §1
For data set [6], the system named is Vancomycin-intermediate S. aureus 03 (VISA03). Kind of data set: microbe, parasite or virus in culture. The format is cell-based, Staphylococcus aureus. As to conditions: Vancomycin-intermediate 03 (VISA03, 16 h). The protocol: as §1
In data set [7] the test system is Vancomycin-intermediate S. aureus 02 (VISA02). Nature of the data set: microbe, parasite or virus in culture. The format is cell-based, Staphylococcus aureus. The note with it: Vancomycin-intermediate 02 (VISA02, 16 h). The protocol: as §1
The test system of data set [8] is Vancomycin-resistant S. aureus 03 (VRSA03). Kind of data set: microbe, parasite or virus in culture. Format: cell-based, Staphylococcus aureus. The note with it: VRSA03 (induced from VISA03 by serial passage); CLSI broth microdilution, TSB, 5 × 10^5 CFU/mL, 16 h, 37 °C; triplicate. The protocol: (§3) For the purpose of inducing vancomycin-resistant Staphylococcus aureus (VRSA), the VISA01, VISA02, and VISA03 bacteria were incubated overnight in culture medium, and transferring 50 µL of bacteria to 5 mL of fresh medium containing 2 μg/mL of vancomycin then incubated overnight. The bacteria were transferred to new tube with doubling vancomycin concentration and then incubated overnight again. The concentration of vancomycin during serial passage was 2, 4, 8, 16, and 32 µg/mL. The procedure was repeated until meeting the final concentration of 32 µg/mL. After serial passage, the cell resistance was confirmed by using an MIC assay.
as §1

Data set [9] has as its system Vancomycin-resistant S. aureus 02 (VRSA02). Kind of data set: microbe, parasite or virus in culture. Format: cell-based, Staphylococcus aureus. The note with it: VRSA02 (induced from VISA02 by serial passage); CLSI broth microdilution, TSB, 5 × 10^5 CFU/mL, 16 h, 37 °C; triplicate. The protocol: as §3, §1
Data set [10] relates to Vancomycin-resistant S. aureus 01 (VRSA01). Nature of the data set: microbe, parasite or virus in culture. The format is cell-based, Staphylococcus aureus. The note with it: VRSA01 (induced from VISA01 by serial passage); CLSI broth microdilution, TSB, 5 × 10^5 CFU/mL, 16 h, 37 °C; triplicate. The protocol: as §3, §1
Data set [11] relates to mice. The note with it: mouse, in vivo, 10 mg/kg; cited from earlier work.
Data set [12] concerns human fibroblasts (HFW). The note with it: peptide >25 µg/mL; cited from earlier work.
Data set [13] relates to E. faecium BCRC 15B0132 (VRE). Nature of the data set: Time killing assay. Format: cell-based, Enterococcus faecium. The note with it: 5 × 10^5 CFU/mL, 1 × MIC, 0.5-24 h, 37 °C, triplicate. The protocol: The bactericidal activities of vancomycin, P-113, Phe-P-113, Bip-P-113, Dip-P-113, and Nal-P-113 against E. faecium BCRC 15B0132 (VRE) and E. coli ATCC 25922 were assessed by the time-kill analysis. The cells were grown overnight in TSB or MHB at 37 °C with shaking, and then fresh TSB or MHB was inoculated for growth to mid-logarithmic phase. Bacteria (5 × 10^5 CFU/mL) were treated with 1 × MIC vancomycin, P-113, Phe-P-113, Bip-P-113, Dip-P-113, and Nal-P-113 for 0.5, 1, 2, 4, 6, 10, and 24 h at 37 °C. Bacteria without peptides and vancomycin served as a control. Aliquots were removed at each time points, and 10-fold serial dilutions of the aliquot were plated onto the Müller-Hinton agar. The numbers of CFU were counted after 24 h of incubation at 37 °C. The detection limit for the colony counts was 2log10 CFU/mL.

In data set [14] the test system is E. faecium BCRC 15B0132 (VRE). Kind of data set: microbe, parasite or virus in culture. Format: cell-based, Enterococcus faecium. The note with it: BCRC 15, 16 h. The protocol: as §1
The subject of data set [15] is E. coli ATCC 25922. Kind of data set: Uptake of BODIPY-labeled vancomycin, confocal laser scanning microscopy. Format: cell-based, Escherichia coli. The note with it: E. coli 10^7 CFU/mL, 0.5 ×MIC peptide 30 min at 37 °C, then BODIPY-labeled vancomycin (2 μg/mL) 30 min; mean fluorescence intensity. The protocol: as §2
The test system of data set [16] is VRE, VISA, VRSA, and E. coli strains. Kind of data set: microbe, parasite or virus in culture. The format is cell-based. As to conditions: all strains studied (VRE, VISA 01-03, VRSA 01-03, E. coli), Table 2. The protocol:
as §1

For data set [17] the following is noted: among the P-113 derivatives; cited from earlier work. The text has this:
The two terminal β-naphthylalanine residues of S1-Nal-Nal (Ac-[…]alNal-NH2) were inserted into the hydrophobic lipid A motif of LPS micelles. […] Similarly, derivatives with phenylalanine-(Phe-P-113), β-naphthylalanine- (Nal-P-1 ...

The structures appear in SMILES notation. Converted amounts (≈) assume the structure as drawn. Non-standard residues stand in square brackets, D forms with d. Residues, ends and D or L forms follow the SMILES beside them. Bip = N[C@@H](Cc1ccc(-c2ccccc2)cc1)C(=O)O

As for `CC(=O)N[C@@H](C)C(=O)N[C@@H](CCCCN)C(=O)N[C@@H](CCCNC(=N)N)C(=O)N[C@@H](Cc1ccc(-c2ccccc2)cc1)C(=O)N[C@@H](Cc1ccc(-c2ccccc2)cc1)C(=O)NCC(=O)N[C@@H](Cc1ccc(O)cc1)C(=O)N[C@@H](CCCCN)C(=O)N[C@@H](CCCNC(=N)N)C(=O)N[C@@H](CCCCN)C(=O)N[C@@H](Cc1ccccc1)C(=O)N[C@@H](Cc1ccc(-c2ccccc2)cc1)C(N)=O` [Bip-P-113] (Ac-AKR[Bip][Bip]GYKRKF[Bip]-NH2), the MIC is 32 µg/mL (≈ 17.2 µM) in data set [1]; 16 µg/mL (≈ 8.58 µM) in data set [5]; 8 µg/mL (≈ 4.29 µM) in data set [6]; 16 µg/mL (≈ 8.58 µM) in [7]; 8 µg/mL (≈ 4.29 µM) in [8]; 16 µg/mL (≈ 8.58 µM) in [9]. Also, the MIC was determined as 16 µg/mL (≈ 8.58 µM) in data set [10] and 4 µg/mL (≈ 2.15 µM) in data set [14]. In addition, in [2], the “synergy with vancomycin (interpretation of FICI)” value is recorded as “best synergy with vancomycin against all of the bacterial strains tested”. The results for the “entry of BODIPY-labeled vancomycin into the bacteria (rank order)” value in data set [3] and in data set [15] were “Bip-P-113 = Nal-P-113 > Dip-P-113 > Phe-P-113 = P-113” and “Bip-P-113 > Nal-P-113 > Dip-P-113 > Phe-P-113 = P-113”, respectively. Moreover, the “calcein leakage from LUVs” value in data set [4] is given as “strongest ability to induce calcein leakage”. For the same molecule, the “adverse effect in mice” value in data set [11] was “did not observe any adverse effect”. Moreover, in data set [12], the “cell death (MTT)” value is recorded as 10–20%. Further, the killing kinetics result in data set [13] was “rapid bactericidal activity”. The “MICs against these bacterial strains” value in data set [16] was “best MICs”. Moreover, the serum proteolytic stability entry in [17] is on record as “enhanced”.
